Results from paper PMC9909341, “TLQP-21 is a low potency partial C3aR activator on human primary macrophages” (Frontiers in Immunology, 2023).

What was measured:
[1] = system: C3aR; details: at the concentration used (5 µM); ref [20]; cited from earlier work
From the text: (§1) However, only mouse TLQP-21 was used in these studies and to the best of our knowledge, no data is available for the potential activity of TLQP-21 in human immune cells. […] However, by contrast to hC3a, the agonistic activity of TLQP-21 peptides was markedly weaker in HMDMs relative to CHO-C3aR, with EC50 values in the high micromolar ...

[2] = system: C5aR1; details: at the concentration used (5 µM); ref [20]; cited from earlier work
From the text: as §1

[3] = system: human C3aR (HMDMs); assay: inhibition of ligand-induced ERK1/2 phosphorylation by SB290157 in HMDMs; format: cell-based; details: 5 µM SB290157, 30 min pre-treatment
From the text: HMDMs were generated and cultured as previously described ([20]), with experiments approved by The University of Queensland Human Research Ethics Committee. Briefly, human buffy coat blood from anonymous healthy donors was obtained through the Australian Red Cross Blood Service (Brisbane, Australia). Human CD14+ monocytes were isolated from blood using Lymphoprep density centrifugation (STEMCELL, Melbourne, Australia) followed by CD14+ MACS magnetic bead separation (Miltenyi Biotec, Sydney, Australia). The isolated monocytes were differentiated for 7 days in Iscove’s Modified Dulbecco’s Medium supplemented with 10% FBS, 100 IU/ml penicillin, 100 μg/ml streptomycin and 15 ng/ml recombinant human macrophage colony stimulating factor (BioLegend, San Diego, USA) on 10 mm square dishes (Bio-strategy, Brisbane, Australia). Non-adherent cells were removed by washing with DPBS, and the adherent differentiated HMDMs were harvested by gentle scraping.
Ligand-induced ERK1/2 phosphorylation was assessed using the AlphaLISA Surefire Ultra p-ERK1/2 (Thr202/Tyr204) kit (PerkinElmer, Melbourne, Australia) following the manufacturer’s protocol as previously described ([18], [20], [22]). Briefly, CHO-K1, CHO-C3aR, CHO-C5aR1, HMDMs (50,000/well) or BMDMs (90,000/well) were seeded in tissue culture-treated 96-well plates (Corning, Corning, USA) for 24 h and serum-starved overnight. All ligand dilutions were prepared in serum-free medium (SFM) containing 0.1% BSA. For inhibition assays, cells were pre-treated with the following ligands (5 µM SB290157, or respective concentrations of hC3a, mC3a, hC5a, hTLQP-21, and mTLQP-21) or the solvent-only control for 30 min before agonist (hC3a, hTLQP-21 and mTLQP-21) addition. The concentration and identity of the ligands are described in detail in the figure legends. For stimulation, cells were treated with ligands at the indicated concentrations for 10 min at RT and then immediately lysed using AlphaLISA lysis buffer on a microplate shaker (450 rpm, 10 min). For the detection of phospho-ERK1/2 content, cell lysate (5 μL/well) was transferred to a 384-well ProxiPlate (PerkinElmer, Melbourne, Australia) and added to the donor and acceptor reaction mix (2.5 μL/well, respectively), followed by a 2-h incubation at RT in the dark. On a Tecan Spark 20M (Tecan, Männedorf, Switzerland), the plate was measured using standard AlphaLISA settings.
Figure 3 Agonistic and antagonistic activities of hTLQP-21 and mTLQP-21 in human monocyte-derived macrophages. […] The phospho-ERK1/2 content in the cell lysate was measured and normalised to the maximum hC3a/hC5a-induced levels before being combined. […]

NC(N)=NCCC[C@H](NC(=O)COCC(c1ccccc1)c1ccccc1)C(=O)O [SB290157]
agonist activity of SB290157 on C3aR [1]: does not exhibit any detectable agonist activity
agonist activity of SB290157 on C5aR1 [2]: does not exhibit any detectable agonist activity
inhibition of hTLQP-21 and mTLQP-21 induced ERK signalling ([3]; HMDMs, n = 4 donors): 70-90%
remaining C3a-induced ERK signalling with SB290157 ([3]; agonist C3a, HMDMs): less than 20 % of the untreated level
remaining hTLQP-21 induced ERK activation with SB290157 ([3]; agonist hTLQP-21): 29 % of the control level
remaining mTLQP-21 induced ERK activation with SB290157 ([3]; agonist mTLQP-21): 16 % of the control level
